From publication doi:10.1101/2025.05.09.652710v1 (bioRxiv, 2025)

Assays:
TMPRSS2 = TMPRSS2 (Homo sapiens, UniProt O15393, Q253D/R252D/R255K/S251D/S254D); assay: Fluorogenic kinetic enzyme inhibitor assay, TMPRSS2; type: biochemical
[1] = test system: influenza A virus strain A/California/4/2009 (pdmH1N1); conditions: for H1N1 titer Log fold reduction (1 μM): virus strain A/California/4/2009 (pdmH1N1, 72 h, 1 μM); for H1N1 titer Log fold reduction (10 μM): virus strain A/California/4/2009 (pdmH1N1, 72 h, 10 μM)
HGFA = biological target: T1, HGFA (Homo sapiens, UniProt Q04756); assay: Fluorogenic kinetic enzyme inhibitor assay, HGFA; type: biochemical
T1 sequence (Q04756 373-655): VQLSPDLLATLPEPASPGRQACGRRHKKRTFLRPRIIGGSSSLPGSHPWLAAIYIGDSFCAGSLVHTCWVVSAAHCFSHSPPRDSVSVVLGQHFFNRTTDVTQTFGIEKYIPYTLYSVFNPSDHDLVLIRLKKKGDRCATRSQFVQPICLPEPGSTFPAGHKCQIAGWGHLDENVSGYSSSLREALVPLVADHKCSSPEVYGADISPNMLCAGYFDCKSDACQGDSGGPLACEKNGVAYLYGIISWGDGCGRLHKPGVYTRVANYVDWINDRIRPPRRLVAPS

thrombin = thrombin (Homo sapiens, UniProt P00734); assay: Chromogenic kinetic enzyme assay, thrombin; type: biochemical
[2] = test system: chimeric VSV SARS-CoV-2 virus; conditions: for EC50: chimeric VSV virus
hepsin = hepsin (Homo sapiens, UniProt P05981); assay: Fluorogenic kinetic enzyme inhibitor assay, hepsin; type: biochemical
Chain of hepsin (P05981 163-417 limits assumed): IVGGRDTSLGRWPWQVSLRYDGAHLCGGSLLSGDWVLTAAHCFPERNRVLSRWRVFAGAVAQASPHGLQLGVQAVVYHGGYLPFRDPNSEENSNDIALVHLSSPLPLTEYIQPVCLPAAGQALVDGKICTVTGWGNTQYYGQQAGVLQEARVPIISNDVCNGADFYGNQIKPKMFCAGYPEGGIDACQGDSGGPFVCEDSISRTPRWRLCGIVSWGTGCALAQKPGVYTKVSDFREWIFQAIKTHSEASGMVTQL
Chain of hepsin (P05981 45-162 partner limits assumed): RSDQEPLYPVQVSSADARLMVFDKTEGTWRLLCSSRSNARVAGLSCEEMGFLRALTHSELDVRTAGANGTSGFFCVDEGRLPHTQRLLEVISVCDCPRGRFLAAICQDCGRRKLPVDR

matriptase = biological target: T2, matriptase (Homo sapiens, UniProt Q9Y5Y6); assay: Fluorogenic kinetic enzyme inhibitor assay, matriptase; type: biochemical
T2 sequence (Q9Y5Y6 615-855): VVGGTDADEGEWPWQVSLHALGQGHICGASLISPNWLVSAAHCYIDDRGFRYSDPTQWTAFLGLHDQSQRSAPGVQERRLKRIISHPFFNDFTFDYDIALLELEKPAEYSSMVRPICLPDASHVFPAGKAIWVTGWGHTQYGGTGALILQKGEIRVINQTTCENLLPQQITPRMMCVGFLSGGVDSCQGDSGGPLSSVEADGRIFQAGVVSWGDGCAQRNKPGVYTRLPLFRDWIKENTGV

Chain of TMPRSS2 (O15393 109-492 S251D/R252D/Q253D/S254D/R255K limits assumed): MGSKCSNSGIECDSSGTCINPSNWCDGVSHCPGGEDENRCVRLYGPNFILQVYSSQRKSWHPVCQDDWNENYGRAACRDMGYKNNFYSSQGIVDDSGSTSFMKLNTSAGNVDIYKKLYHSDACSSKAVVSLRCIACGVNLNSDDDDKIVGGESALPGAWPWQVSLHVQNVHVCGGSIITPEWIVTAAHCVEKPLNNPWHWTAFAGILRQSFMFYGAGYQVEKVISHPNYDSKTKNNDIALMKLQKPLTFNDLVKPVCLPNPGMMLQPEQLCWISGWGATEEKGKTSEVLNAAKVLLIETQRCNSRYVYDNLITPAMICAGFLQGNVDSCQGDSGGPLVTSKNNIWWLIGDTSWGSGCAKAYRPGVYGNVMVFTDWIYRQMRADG

Compound	IC50 (TMPRSS2)	H1N1 Fold inhibition @ 0.001 μM [1]	H1N1 Fold inhibition @ 0.01 μM [1]	H1N1 Fold inhibition @ 0.1 μM [1]	H1N1 Fold inhibition @ 1 μM [1]	H1N1 Fold inhibition @ 10 μM [1]	H1N1 titer Log fold reduction (1 μM) [1]	H1N1 titer Log fold reduction (10 μM) [1]	IC50 (HGFA)	IC50 (thrombin)	VSV SARS-CoV-2 Chimera EC50 [2]	EC50 [2]	IC50 (hepsin)	IC50 (matriptase)
N=C(N)NCCC[C@H](NC(=O)[C@H](Cc1ccccc1)NC(=O)[C@H](CCC(N)=O)NC(=O)Cc1ccccc1)C(=O)c1nc2ccccc2s1 [CA1018, PhAc-QFR-kbt]	0.41 nM													
N=C(N)NCCC[C@H](NC(=O)[C@H](Cc1ccccc1)NC(=O)[C@H](CCC(N)=O)NCc1ccccc1)C(=O)c1nc2ccccc2s1 [CA1022, Bn-QFR-kbt]	0.99 nM													
N=C(N)NCCC[C@H](NC(=O)[C@H](Cc1ccccc1)NC(=O)[C@H](CCC(N)=O)NCCc1ccccc1)C(=O)c1nc2ccccc2s1 [CA1033, PhCH2CH2-QFR-kbt]	0.32 nM													
CN(C)[C@@H](CCC(N)=O)C(=O)N[C@@H](Cc1ccccc1)C(=O)N[C@@H](CCCNC(=N)N)C(=O)c1nc2ccccc2s1 [CA1041, Dimethyl-QFR-kbt]	0.86 nM													
N=C(N)NCCC[C@H](NC(=O)[C@H](Cc1ccccc1)NC(=O)[C@H](CCC(N)=O)NC(=O)c1ccccc1)C(=O)c1nc2ccccc2s1 [CA1043, Bz-QFR-kbt]	0.08 nM	1	1	5	968	774	3.1	3.0						
N=C(N)NCCC[C@H](NC(=O)[C@H](Cc1ccccc1)NC(=O)[C@H](CCC(N)=O)N1CCCCC1)C(=O)c1nc2ccccc2s1 [CA1046, Pip-QFR-kbt]	8.2 nM													
CS(=O)(=O)N[C@@H](CCC(N)=O)C(=O)N[C@@H](Cc1ccccc1)C(=O)N[C@@H](CCCNC(=N)N)C(=O)c1nc2ccccc2s1 [MF1099, MeSO2-QFR-kbt, reference compound]									341 nM					
N=C(N)NCCC[C@H](NC(=O)[C@H](Cc1ccccc1)NC(=O)[C@H](CCC(N)=O)NS(=O)(=O)c1ccccc1)C(=O)c1nc2ccccc2s1 [MF1101, PhSO2-QFR-kbt]	1 nM	1	1	4	1014	1321	2.9	3.3	17 nM					
N=C(N)NCCC[C@H](NC(=O)[C@H](Cc1ccccc1)NC(=O)[C@H](CCC(N)=O)NS(=O)(=O)C1CC1)C(=O)c1nc2ccccc2s1 [MF1104, CypSO2-QFR-kbt]	0.27 nM	1	2	1	617	916	2.9	3.0	4.2 nM					
N=C(N)NCCC[C@H](NC(=O)[C@H](Cc1ccccc1)NC(=O)[C@H](CCC(N)=O)NS(=O)(=O)Cc1ccccc1)C(=O)c1nc2ccccc2s1 [MF1105, BnSO2-QFR-kbt]	0.07 nM								6.5 nM	> 20000 nM				
CC(=O)NCC(=O)N[C@@H](CCC(N)=O)C(=O)N[C@@H](Cc1ccccc1)C(=O)N[C@@H](CCCNC(=N)N)C(=O)c1nc2ccccc2s1 [MM3122, Ac-GQFR-kbt]	0.03 nM	2.1	4.2	27.5	2216	2952	3.4	4.3			below nM	0.43 nM		
CC(=O)N1CCC[C@H]1C(=O)N[C@@H](CCC(N)=O)C(=O)N[C@@H](Cc1ccccc1)C(=O)N[C@@H](CCCNC(=N)N)C(=O)c1nc2ccccc2s1 [MM3123, Ac-PQFR-kbt]	0.06 nM						1.3	2.6			below nM	0.86 nM		
CSCC[C@H](NC(C)=O)C(=O)N[C@@H](CCC(N)=O)C(=O)N[C@@H](Cc1ccccc1)C(=O)N[C@@H](CCCNC(=N)N)C(=O)c1nc2ccccc2s1 [MM3130, Ac-MQFR-kbt]	0.14 nM			1	27	510	1.4	2.7				48 nM		
CC(=O)N[C@@H](CC(C)C)C(=O)N[C@@H](CCC(N)=O)C(=O)N[C@@H](Cc1ccccc1)C(=O)N[C@@H](CCCNC(=N)N)C(=O)c1nc2ccccc2s1 [MM3131, Ac-LQFR-kbt]	0.03 nM											11 nM		
CC[C@H](C)[C@H](NC(C)=O)C(=O)N[C@@H](CCC(N)=O)C(=O)N[C@H](C(=O)N[C@@H](CCCNC(=N)N)C(=O)c1nc2ccccc2s1)C(C)C [MM3180, Ac-IQVR-kbt]	0.03 nM			2	135	359	2.1	2.6	799 nM	> 20000 nM		12 nM	0.11 nM	0.76 nM
CC(=O)N1CCC[C@H]1C(=O)N[C@@H](CO)C(=O)N[C@@H](CCCCN)C(=O)N[C@@H](CCCNC(=N)N)C(=O)c1nc2ccccc2s1 [MM3194, Ac-PSKR-kbt]	0.29 nM			1	1	4	0	0.60		> 20000 nM		613 nM		
CC[C@H](C)[C@H](NC(C)=O)C(=O)N[C@@H](CO)C(=O)N[C@@H](Cc1ccccc1)C(=O)N[C@@H](CCCNC(=N)N)C(=O)c1nc2ccccc2s1 [MM4009, Ac-ISFR-kbt]	0.07 nM			2	3	743	0.62	3.4	182 nM	> 20000 nM		40 nM	0.86 nM	4.7 nM
CC[C@H](C)[C@H](NC(C)=O)C(=O)N[C@@H](CCSC)C(=O)N[C@@H](Cc1ccccc1)C(=O)N[C@@H](CCCNC(=N)N)C(=O)c1nc2ccccc2s1 [MM4027, Ac-IMFR-kbt]	3 nM									> 20000 nM		92 nM	1.3 nM	0.51 nM
CC[C@H](C)[C@H](NC(C)=O)C(=O)N[C@@H](CCSC)C(=O)N[C@@H](Cc1ccccc1)C(=O)N[C@H](CCCNC(=N)N)C(=O)c1nc2ccccc2s1 [MM4027-1, Ac-IMFdR-kbt]	5.63 nM								234 nM	> 20000 nM			3.16 nM	16.1 nM
CC[C@H](C)[C@H](NC(C)=O)C(=O)N[C@H](C(=O)N[C@@H](Cc1ccccc1)C(=O)N[C@@H](CCCNC(=N)N)C(=O)c1nc2ccccc2s1)[C@@H](C)O [MM4028, Ac-ITFR-kbt]	0.06 nM								182 nM	> 20000 nM		103 nM	0.86 nM	4.7 nM
CC[C@H](C)[C@H](NC(C)=O)C(=O)N[C@H](C(=O)N[C@@H](Cc1ccccc1)C(=O)N[C@H](CCCNC(=N)N)C(=O)c1nc2ccccc2s1)[C@@H](C)O [MM4028-1, Ac-ITFdR-kbt]	1.42 nM								1120 nM	> 20000 nM				
CC[C@H](C)[C@H](NC(C)=O)C(=O)N[C@@H](CCC(=O)O)C(=O)N[C@@H](Cc1ccccc1)C(=O)N[C@@H](CCCNC(=N)N)C(=O)c1nc2ccccc2s1 [MM4037, Ac-IEFR-kbt]	0.11 nM								276 nM	> 20000 nM		24 nM	0.35 nM	2.4 nM
CC[C@H](C)[C@H](NC(C)=O)C(=O)N[C@@H](CCC(=O)O)C(=O)N[C@@H](Cc1ccccc1)C(=O)N[C@H](CCCNC(=N)N)C(=O)c1nc2ccccc2s1 [MM4037-1, Ac-IEFdR-kbt]	0.38 nM								> 20000 nM	> 20000 nM				
CC(=O)N[C@@H](Cc1c[nH]c2ccccc12)C(=O)N[C@@H](CC(C)C)C(=O)N[C@@H](Cc1ccccc1)C(=O)N[C@@H](CCCNC(=N)N)C(=O)c1nc2ccccc2s1 [ZFH7064, Ac-WLFR-kbt]	0.09 nM													
N=C(N)NCCC[C@H](NC(=O)[C@H](Cc1ccccc1)NC(=O)[C@H](CCC(N)=O)NC(=O)OCc1ccccc1)C(=O)c1nc2ccccc2s1 [ZFH9141, Cbz-QFR-kbt]	0.42 nM	2	6	483	578	578	2.8	2.8	85 nM					
